Data from patent US20210236575A1 (priority 2018, published 2021).
Where two headings read alike, the source gives them in different places.

Assays:
COX-2 = target: T1, COX-2 (Homo sapiens, UniProt P35354); conditions: Takeda et al 2008; cited from earlier work
T1 sequence (P35354 18-604): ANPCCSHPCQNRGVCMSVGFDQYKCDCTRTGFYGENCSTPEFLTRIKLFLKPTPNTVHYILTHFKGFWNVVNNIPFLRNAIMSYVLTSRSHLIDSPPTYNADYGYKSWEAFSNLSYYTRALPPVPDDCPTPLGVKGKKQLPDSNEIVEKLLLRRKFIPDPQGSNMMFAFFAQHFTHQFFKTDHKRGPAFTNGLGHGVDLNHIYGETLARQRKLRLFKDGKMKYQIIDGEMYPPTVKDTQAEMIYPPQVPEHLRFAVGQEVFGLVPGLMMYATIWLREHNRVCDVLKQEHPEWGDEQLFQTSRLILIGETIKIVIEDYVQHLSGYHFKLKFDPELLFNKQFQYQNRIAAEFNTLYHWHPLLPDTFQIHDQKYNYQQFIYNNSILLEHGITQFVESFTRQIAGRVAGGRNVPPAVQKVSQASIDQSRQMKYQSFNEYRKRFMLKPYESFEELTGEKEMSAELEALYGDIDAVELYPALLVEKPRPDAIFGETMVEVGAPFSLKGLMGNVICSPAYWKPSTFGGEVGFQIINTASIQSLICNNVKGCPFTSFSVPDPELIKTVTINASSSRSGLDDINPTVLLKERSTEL

CB2R = CB2R (Homo sapiens, UniProt P34972); assay: CB2R agonism assay, HEK293T-CB2 cells with CRE-Luc reporter, forskolin-stimulated; conditions: for Conclusions: Is CB2R agonist effect observed? / Experiment 1 % of activity / Experiment 2 % of activity / Experiment 3 % of activity: THC 10 μM or THCA 10 μM alone; for Experiment 1 % of activity / Experiment 2 % of activity / Experiment 3 % of activity: forskolin = 100%
NF-κB = NF-κB luciferase assay, TNFα-induced, NIH-3T3-KBF-Luc cells
CB1R [1] = target: T2, CB1R (Homo sapiens, UniProt P21554); assay: cell-based
T2 construct: expressed in transfected cells; host or cells: HEK293T (HEK293T-CB1), transiently co-transfected with CRE-luc reporter

CB1R [2] = target: T2, CB1R; assay type: cell-based
[3] = read-out: Experiment 1 % of activity
[4] = read-out: Experiment 2 % of activity
[5] = read-out: Experiment 3 % of activity
[6] = THCA 10 μM or THC 10 μM alone, CP55940 = 100%
[7] = THC 10 μM or CBD 10 μM alone, TNFα = 100%
[8] = TNFα 30 ng/mL (control without inhibitor)

CB2R, sequence (P34972 whole entry): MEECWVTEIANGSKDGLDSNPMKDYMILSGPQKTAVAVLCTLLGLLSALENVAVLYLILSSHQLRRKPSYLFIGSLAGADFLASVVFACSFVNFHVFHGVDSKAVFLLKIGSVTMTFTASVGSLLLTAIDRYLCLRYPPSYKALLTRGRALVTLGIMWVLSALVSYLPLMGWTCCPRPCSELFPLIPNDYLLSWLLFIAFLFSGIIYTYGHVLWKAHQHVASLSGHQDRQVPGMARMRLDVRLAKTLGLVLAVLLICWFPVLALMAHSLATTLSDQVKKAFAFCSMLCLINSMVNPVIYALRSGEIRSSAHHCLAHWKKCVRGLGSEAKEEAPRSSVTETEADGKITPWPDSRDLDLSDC
T2 sequence (P21554 whole entry): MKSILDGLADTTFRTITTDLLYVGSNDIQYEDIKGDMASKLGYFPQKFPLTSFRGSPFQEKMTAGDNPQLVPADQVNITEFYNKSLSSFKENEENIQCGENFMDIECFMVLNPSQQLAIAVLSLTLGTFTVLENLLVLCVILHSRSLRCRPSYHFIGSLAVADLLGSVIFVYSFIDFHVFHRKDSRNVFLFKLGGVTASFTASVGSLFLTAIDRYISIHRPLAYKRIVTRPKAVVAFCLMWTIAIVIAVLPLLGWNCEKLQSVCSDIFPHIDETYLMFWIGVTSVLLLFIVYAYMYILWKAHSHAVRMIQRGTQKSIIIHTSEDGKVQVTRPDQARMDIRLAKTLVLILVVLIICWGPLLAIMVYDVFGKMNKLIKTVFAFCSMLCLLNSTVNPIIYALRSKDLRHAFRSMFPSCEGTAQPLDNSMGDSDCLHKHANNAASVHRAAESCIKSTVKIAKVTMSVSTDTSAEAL

C=C(C)[C@@H]1CCC(C)=C[C@H]1c1c(O)cc(CCCCC)c(C(=O)O)c1O [CBDA, cannabidiolic acid]
selectivity for COX-2 than COX-1 inhibition (COX-2): 9 fold

C=C[C@@]1(C)CC(=O)[C@]2(O)[C@@]3(C)[C@@H](O)CCC(C)(C)[C@@H]3[C@H](O)[C@H](OC(C)=O)[C@@]2(C)O1 [Forskolin]
activity at 1 µM (CB2R; [3]): 100%
activity at 1 µM (CB2R; [4]): 100%
activity at 1 µM (CB2R; [5]): 100%

COc1cc(/C=C/C(=O)CC(=O)/C=C/c2ccc(O)c(OC)c2)ccc1O [Curcumin, diferuloylmethane (curcumin)]
EC50 (CB2R): 5.97 mM
Conclusions: Is NF-κB inhibitor effect observed? (NF-κB; Curcumin 5 μM, alone or + THC 10 μM or + CBD 10 μM): + (positive result (activity ≤50%) are considered inhibitory of NF-κB activity)
Conclusions: Is NF-κB inhibitor effect observed? (NF-κB; Curcumin 10 μM, alone or + THC 10 μM or + CBD 10 μM): + (positive result (activity ≤50%) are considered inhibitory of NF-κB activity)
Conclusions: Is NF-κB inhibitor effect observed? (NF-κB; Curcumin 15 μM, alone or + THC 10 μM or + CBD 10 μM): + (positive result (activity ≤50%) are considered inhibitory of NF-κB activity)
IC50 (NF-κB; read-out: anti-NF-κB IC50): 3.91 µM

CCCCCc1cc2c(c(O)c1C(=O)O)[C@@H]1C=C(C)CC[C@H]1C(C)(C)O2 [THCA, tetrahydrocannabinolic acid]
Conclusions: Is CB2R agonist effect observed? (CB2R): Negative
Experiment 1 % of activity (CB2R): 115.6%
Experiment 2 % of activity (CB2R): 105.6%
Experiment 3 % of activity (CB2R): 124.6%
Conclusions: Is CB1R antagonist effect observed? (CB1R [1]; THCA 10 μM or THC 10 μM alone): Negative
Experiment 1 % of activity (CB1R [1]; [6]): 116.7%
Experiment 2 % of activity (CB1R [1]; [6]): 116.0%
Experiment 3 % of activity (CB1R [1]; [6]): 56.4%
Conclusions: Is CB1R agonist effect observed? (CB1R [2]; THCA 10 μM or THC 10 μM alone): Negative
Experiment 1 Fold change (CB1R [2]; THCA 10 μM or THC 10 μM alone): 0.9 fold
Experiment 2 Fold change (CB1R [2]; THCA 10 μM or THC 10 μM alone): 0.8 fold
Experiment 3 Fold change (CB1R [2]; THCA 10 μM or THC 10 μM alone): 1.1 fold

CCCCCc1cc(O)c2c(c1)OC(C)(C)[C@@H]1CCC(C)=C[C@@H]21 [THC, tetrahydrocannabinol]
Conclusions: Is CB2R agonist effect observed? (CB2R): Negative
Experiment 1 % of activity (CB2R): 54.7%
Experiment 2 % of activity (CB2R): 73.7%
Experiment 3 % of activity (CB2R): 60.3%
Conclusions: Is NF-κB inhibitor effect observed? (NF-κB; THC 10 μM or CBD 10 μM alone): Negative
Experiment 1 % of activity (NF-κB; [7]): 122.2%
Experiment 2 % of activity (NF-κB; [7]): 84.9%
Experiment 3 % of activity (NF-κB; [7]): 88.8%

TNFα
Conclusions: Is NF-κB inhibitor effect observed? (NF-κB; [8]): Negative
Experiment 1 % of activity (NF-κB; [8]): 100.0%
Experiment 2 % of activity (NF-κB; [8]): 100.0%
Experiment 3 % of activity (NF-κB; [8]): 100.0%

CCCCCCC(C)(C)c1ccc([C@@H]2C[C@H](O)CC[C@H]2CCCO)c(O)c1 [CP]
Conclusions: Is CB1R antagonist effect observed? (CB1R [1]): Negative
activity at 5 µM (CB1R [1]; [3]): 100%
activity at 5 µM (CB1R [1]; [4]): 100%
activity at 5 µM (CB1R [1]; [5]): 100%
Conclusions: Is CB1R agonist effect observed? (CB1R [2]): + (key: +: positive result (CB1R activity ≥2.5-fold increase) are considered agonists of CB1R activity)
Experiment 1 Fold change (CB1R [2]): 2.5 fold
Experiment 2 Fold change (CB1R [2]): 2.5 fold
Experiment 3 Fold change (CB1R [2]): 2.5 fold

C=C(C)[C@@H]1CCC(C)=C[C@H]1c1c(O)cc(CCCCC)cc1O [CBD, cannabidiol]
Conclusions: Is CB1R antagonist effect observed? (CB1R [1]; CBD 1 μM alone): Negative
activity at 1 µM (CB1R [1]; CBD 1 μM alone, CP55940 = 100%, read-out: Experiment 1 % of activity): 61.3%
activity at 1 µM (CB1R [1]; CBD 1 μM alone, CP55940 = 100%, read-out: Experiment 2 % of activity): 55.9%
activity at 1 µM (CB1R [1]; CBD 1 μM alone, CP55940 = 100%, read-out: Experiment 3 % of activity): 57.4%
Conclusions: Is NF-κB inhibitor effect observed? (NF-κB; THC 10 μM or CBD 10 μM alone): Negative
activity at 10 µM (NF-κB; [3]): 136%
activity at 10 µM (NF-κB; [4]): 86.4%
activity at 10 µM (NF-κB; [5]): 106%
